This assay deals with T1, EcLDCc-CatIBs (EcLDCc-TDoT fusion; constitutive L-lysine decarboxylase from E. coli) (Escherichia coli, UniProt P52095).
T1 construct: gene ldcC; full-length EcLDCc with C-terminal 3xGGGS linker and TDoT coiled-coil tag (tetrabrachion, Staphylothermus marinus), pET28, E. coli BL21(DE3)
T1 sequence (P52095 1-713): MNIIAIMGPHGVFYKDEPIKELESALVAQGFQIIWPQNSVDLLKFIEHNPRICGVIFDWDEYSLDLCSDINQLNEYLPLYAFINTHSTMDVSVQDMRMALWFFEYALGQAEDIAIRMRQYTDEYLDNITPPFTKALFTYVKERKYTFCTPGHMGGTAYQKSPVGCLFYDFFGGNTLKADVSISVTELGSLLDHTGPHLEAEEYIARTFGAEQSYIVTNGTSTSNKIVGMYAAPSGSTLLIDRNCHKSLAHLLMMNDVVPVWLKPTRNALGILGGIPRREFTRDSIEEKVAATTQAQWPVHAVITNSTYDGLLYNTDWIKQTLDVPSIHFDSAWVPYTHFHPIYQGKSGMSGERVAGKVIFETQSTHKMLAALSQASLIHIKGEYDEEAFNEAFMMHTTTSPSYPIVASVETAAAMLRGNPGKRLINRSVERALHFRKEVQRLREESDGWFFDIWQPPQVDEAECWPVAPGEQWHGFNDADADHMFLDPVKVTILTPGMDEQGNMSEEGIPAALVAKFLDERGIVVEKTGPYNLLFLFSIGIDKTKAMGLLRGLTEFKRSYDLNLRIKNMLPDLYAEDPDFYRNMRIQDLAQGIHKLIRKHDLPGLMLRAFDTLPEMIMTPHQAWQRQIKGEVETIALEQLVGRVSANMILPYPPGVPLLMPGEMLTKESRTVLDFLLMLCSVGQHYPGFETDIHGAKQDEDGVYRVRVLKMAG
As to the kind of experiment: HPLC of […],5-diaminopentane formed, OPA derivatisation. Type of assay: biochemical. Particulars: 50 mM KPi buffer, 10 mM L-lysine, 30 °C, pH 7-9 (general range; pH 9 differs); CatIB enzyme as prepared, not PLP-depleted.

With `Cc1ncc(COP(=O)(O)O)c(C=O)c1O` [pyridoxal-5′-phosphate], the “% activity increase at 0.1 mM PLP” value is on record as 5–15%.
